From patent publication US20230365571A1, “COMPOUNDS AND COMPOSITIONS AS Sppl2a INHIBITORS” (Novartis AG, priority 2020, published 2023)

Legend:
Type in all cases: cell-based
human SPPL2a [1] = molecular target: T1, human SPPL2a (Homo sapiens, UniProt Q8TCT8); experiment: Sppl2a TL (translocation) imaging assay in U-2 OS cells; parameters: expressed in transfected cells; details: U-2 OS cells expressing human SPPL2a and EGFP-TNFα(aa1-76) NTF substrate; 24 h
T1 sequence (Q8TCT8 26-520): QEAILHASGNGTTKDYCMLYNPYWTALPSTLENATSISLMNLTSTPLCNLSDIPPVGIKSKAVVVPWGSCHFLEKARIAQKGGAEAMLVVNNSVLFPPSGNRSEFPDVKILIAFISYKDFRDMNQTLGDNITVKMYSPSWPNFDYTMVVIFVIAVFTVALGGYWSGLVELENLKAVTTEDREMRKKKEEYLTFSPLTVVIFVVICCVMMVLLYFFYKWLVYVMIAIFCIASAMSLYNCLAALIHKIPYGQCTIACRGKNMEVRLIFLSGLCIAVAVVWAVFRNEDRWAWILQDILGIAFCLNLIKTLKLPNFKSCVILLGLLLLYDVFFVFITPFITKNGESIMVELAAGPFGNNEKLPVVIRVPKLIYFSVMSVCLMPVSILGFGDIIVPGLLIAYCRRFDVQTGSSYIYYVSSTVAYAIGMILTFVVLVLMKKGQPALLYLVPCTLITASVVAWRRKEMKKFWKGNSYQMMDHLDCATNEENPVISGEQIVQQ
How it was run: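 U-2 OS cells stably expressing human SPPL2a plus doxycycline-induced EGFP-TNFα(aa1-76) NTF, treated 24 h at 37 °C with inhibitor (100 μM–1 nM, 11 points, 0.9% DMSO, 5 μg/mL doxycycline). Imaging of nuclear-minus-cytoplasmic EGFP intensity; % inhibition versus 0.5 μM LY-411,575 and DMSO, IC50 by nonlinear regression; CC50 from cell count.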

human SPPL2a [2] = molecular target: T1, human SPPL2a; experiment: Sppl2a RGA (reporter gene assay) in HEK293 cells; parameters: expressed in transfected cells; host or cells: HEK293 (transient); details: NT-TNF-VP16-Gal4 substrate, Gal4-luciferase reporter, 24 h
How it was run: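 Cleavage of a membrane-bound TNF N-terminal–VP16-Gal4 substrate drives Gal4-luciferase expression in transiently transfected HEK293 cells also expressing human SPPL2a. Compounds incubated 24 h, 37 °C, 5% CO2; luminescence read, normalized and plotted against concentration for IC50.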

γ-secretase = γ-secretase (Homo sapiens, UniProt P49768); experiment: γ-secretase RGA (reporter gene assay, Notch1 substrate) in HEK293 cells; details: Notch1-VP16-Gal4 substrate, Gal4-luciferase reporter, 24 h, read-out: g-secretase RGA IC50
Source text: The assay is based on the coupling of the proteolytic degradation of a membrane bound synthetic substrate, a VP16-Gal4 fusion protein with Notch1, which migrates to the nucleus upon cleavage, where it activates Gal4 driven expression of luciferase. […] The luciferase dependent-luminescence is plotted against the concentrations of compound to generate a dose response curve, which allows the calculation of the IC50 value. DNA vectors encoding human Notch1-VP16-Gal4 and a Gal4-luciferase reporter were transiently transfected in HEK293 cells, which express γ-secretase components endogenously. In a typical experiment 10 μg plasmid encoding the reporter Gal4-luciferase and 20 μg plasmid encoding the substrate Notch1-VP16-Gal4 were mixed together. The DNA mixture was combined with 107 μl FuGENE® (Promega), 735 μl Opti-MEM® (Life Technologies) and incubated for 5 minutes at RT. To this mixture 20 mL of concentrated HEK293 cells were added and thoroughly mixed. The cell suspension was distributed to a white solid 384 well plate. Within hours, 50 nl of compound in DMSO was stamped into the wells via pintool. […] After incubation at room temperature for 5 min, the plate was transferred to a luminometer and the luminescence was measured. The IC50 was determined by plotting compound concentration vs. normalized luminescence values.

Sppl2a CD74 = molecular target: T2, Sppl2a CD74 (Mus musculus, UniProt Q9JJF9); experiment: CD74/p8 mouse whole blood assay, flow cytometry format; details: Balb/c mouse whole blood, 5 h, CD74 signal on gated live B cells
T2 construct: Mouse whole blood Balb/c mice (sodium citrate) was ordered by Bioreclamation LLC; tissue Bioreclamation LLC
T2 sequence (Q9JJF9 26-523): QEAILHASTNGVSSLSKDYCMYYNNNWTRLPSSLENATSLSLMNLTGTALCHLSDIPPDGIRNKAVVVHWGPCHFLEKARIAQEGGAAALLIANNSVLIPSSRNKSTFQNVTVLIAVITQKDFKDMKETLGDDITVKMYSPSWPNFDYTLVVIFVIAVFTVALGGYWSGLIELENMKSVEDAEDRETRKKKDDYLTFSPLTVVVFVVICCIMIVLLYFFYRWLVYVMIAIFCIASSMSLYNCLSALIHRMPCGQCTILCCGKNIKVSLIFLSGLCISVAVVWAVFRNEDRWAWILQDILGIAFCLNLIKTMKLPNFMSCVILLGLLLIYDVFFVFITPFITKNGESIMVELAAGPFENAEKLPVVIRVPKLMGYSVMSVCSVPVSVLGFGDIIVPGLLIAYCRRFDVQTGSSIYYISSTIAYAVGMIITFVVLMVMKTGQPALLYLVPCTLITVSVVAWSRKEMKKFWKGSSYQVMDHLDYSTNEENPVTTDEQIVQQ
How it was run: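 Balb/c mouse whole blood (citrate) incubated 5 h at 37 °C with compounds, 11-point dilution from 30 μM top. After RBC lysis, live B220+ B cells stained intracellularly for CD74 (FITC) and analysed by flow cytometry. IC50 fitted from CD74 median fluorescence intensity.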

IC50 (human SPPL2a [1]) | IC50 (human SPPL2a [2]) | IC50 (Sppl2a CD74) | Molecule | IC50 (γ-secretase)
15 nM | 7 nM | 473 nM | CCn1nc(-c2cc(C)no2)cc1NC(=O)C[C@@H](C)C(=O)N[C@@H]1C(=O)N2CCCN2Cc2ccccc21 [Example 101, (R)-N^4-(1-Ethyl-3-(3-methylisoxazol-5-yl)-1H-pyrazol-5-yl)-2-methyl-N^1-((S)-11-oxo-2,3,10,11-tetrahydro-1H,5H-benzo[d]pyrazolo [1,2-a][1,2]diazepin-10-yl)succinamide] | 
17 nM | 123 nM | 1520 nM | C[C@H](CC(=O)Nc1cc(C(=O)NC2CC2)nn1C)C(=O)N[C@@H]1C(=O)N2CCCN2Cc2ccccc21 [Example 102, (R)-N^4-(3-(Cyclopropylcar-bamoyl)-1-methyl-1H-pyrazol-5-yl)-2-methyl-N^1-((S)-11-oxo-2,3,10,11-tetrahydro-1H,5H-benzo[d]pyrazolo [1,2-a][1,2]diazepin-10-yl)succinamide] | 
17 nM | 13 nM | 1250 nM | Cn1nc(-c2cc(C3CC3)no2)cc1NC(=O)C[C@H](C(=O)N[C@@H]1C(=O)N2CC3(CC3)CN2C(=O)c2ccccc21)C1CC1 [Example 103, (S)-2-Cyclopropyl-N^4-(3-(3-cyclopropylisoxa-zol-5-yl)-1-methyl-1H-pyrazol-5-yl)-N^1-((S)-5,11-dioxo-10,11-dihydro-1H,3H,5H-spiro[benzo[d]pyr-azolo[1,2-a][1,2]diazepine-2,1″- cyclopropan]-10-yl)succinamide] | 

Molecule | IC50 (human SPPL2a [1]) | IC50 (human SPPL2a [2]) | IC50 (Sppl2a CD74) | IC50 (γ-secretase)
3,4-Dimethyl-N- ((R)-2-(((S)-11- oxo-2,3,10,11- tetrahydro- 1H,5H- benzo[d]pyrazolo [1,2- a][1,2]diazepin- 10- yl)carbamoyl)pen- tyl)isoxazole-5- carboxamide [Example 33] | 37 nM | 7 nM |  | > 10000 nM
